# Source: patent US20110124523A1, “High Throughput Method for Detecting Apoptosis of Embryonic Stages of Metazoan Helminthic Parasites” (INSTITUTE OF LIFE SCIENCES, priority 2009, published 2011)
# Values joined by “and” are separate entries in the source; they are usually repeats but may differ in a detail not shown here. Equal entries are not always repeated.
# What was measured:
# [1] = tested on: embryonic stages of S. digitata; assay: Intra cellular expression of CED-4 protein, flow cytometry; assay type: cell-based, Setaria digitata; details: 24 hr
# Description: (§1) Adult female filarial worms Setaria digitata were collected from the peritoneum of cattle, slaughtered at a nearby abattoir in sterile Hanks Balanced Salt Solution (HBSS) medium (Sigma H 2387-1L) and transported to the laboratory in a sterile container. The medium containing 1% glucose (Sigma G 7528), Penicillin 100 units/ml, Streptomycin 100 μg/ml (Sigma P 4333). And Amphotericin-B 0.25 μg/ml (Sigma A 2942) was buffered with NaHCO3 (Sigma S 5761). About 5 to 7 worms were taken in a petridish, washed three times in medium, dissected into small pieces in 10 ml of medium under sterile conditions and incubated at 37° C. for 30 minutes to allow the release of embryonic stages (eggs and microfilariae) into the medium. The embryonic stages were harvested into sterile 15 ml. centrifuge tubes and washed three times by centrifuging at 300 g for 10 minutes each with medium and the final pellet was suspended in 1 ml. of RPMI-1640 medium (Sigma R 8005) supplemented with 10% FBS (Sigma F 2442) The number of embryonic stages of S. digitata in the above preparation were counted using light microscope, and the suspension was taken in RPMI-1640 medium containing 10% FBS at 1×10^5 embryonic stages/ml. One ml. each was dispensed into individual wells of a 24 well tissue culture plate. One set of wells was taken as untreated control containing only medium with 10% FBS. […] Motility of the Mf was scored under an inverted microscope. After appropriate treatment and incubation, each set of the cultured embryonic stages of S. digitata were harvested from the 24 well tissue culture plate separately in 15 ml. sterile centrifuge tubes, washed with PBS twice and stained as per requirement following manufacturer's instructions as described below. This was followed by two times washing with PBS and final suspension of the stained embryonic stages was taken in 0.5 ml of sheath fluid (BD Biosciences 342003) before their acquisition in the flow cytometer (BD FACS Calibur, Becten and Dickinson, USA). Analysis was performed on 10,000-acquired events depicted as Dot Plots and Histogram Plots using Cellquest Pro soft ware. All plots were representative of at least 3 experiments. The distinctly clustered populations obtained consistently in the Dot plots for the intra uterine embryonic stages of S. digitata (FIG. 1 a) were gated for Mfs (R-1) and eggs (R-2 and R-3) and analyzed for different assays for apoptosis as described below. After in vitro culture for 24 hours with apoptosis inducing reagents the embryonic stages were harvested in 15 ml. sterile centrifuge tubes and fixed for 60 minutes at 0° C. in 1% paraformaldehyde (Sigma P 6148) in PBS. The suspension was washed first with PBS and then with 1× permeabilisation buffer (eBioscience 00-8333-56) and finally resuspended in 100 μl of 1× permeabilisation buffer at 1×10^5 embryonic stages per ml. The intracellular expression of CED-4 was scored by incubation of the fixed and permeabilised embryonic stages with primary goat antibodies—anti CED-4 (Santacruz sc-9193) followed by probing with PE conjugated secondary anti goat IgG-PE (Santacruz sc-3747) antibodies. Incubation of both primary and secondary antibodies (both 1/100 diluted) was done successively in 1× permeabilisation buffer (e Bioscience 00-8333-56) for 1 hr and 45 minutes respectively. The suspension of stained embryonic stages was then washed with PBS twice and finally reading was taken by flow cytometry or confocal microscopy.
# [2] = tested on: embryonic stages of S. digitata; assay: Intra cellular expression of CED-9 protein, flow cytometry; assay type: cell-based, Setaria digitata; details: 24 hr
# Description: as §1, with “CED-9” for “CED-4”, “sc-9202)” for “sc-9193)”
Structure (SMILES),"GMI (Geometric Mean Intensity) of Fluorescence, CED-4 Expression ([1]; Eggs, 10 μM)","GMI (Geometric Mean Intensity) of Fluorescence, CED-4 Expression ([1]; Microfilariae, 10 μM)","GMI (Geometric Mean Intensity) of Fluorescence, CED-9 Expression ([2]; Eggs, 10 μM)","GMI (Geometric Mean Intensity) of Fluorescence, CED-9 Expression ([2]; Microfilariae, 10 μM)","GMI (Geometric Mean Intensity) of Fluorescence, CED-4 Expression ([1]; Eggs, 1 μM)","GMI (Geometric Mean Intensity) of Fluorescence, CED-4 Expression ([1]; Microfilariae, 1 μM)","GMI (Geometric Mean Intensity) of Fluorescence, CED-9 Expression ([2]; Eggs, 1 μM)","GMI (Geometric Mean Intensity) of Fluorescence, CED-9 Expression ([2]; Microfilariae, 1 μM)"
OO [H2O2],99.36 and 100.32 and 95.29,15.72 and 17.33 and 16.26,115.67 and 123.32 and 113.26,15.66 and 17.26 and 16.13,–,–,–,–
CN[C@@H]1C[C@H]2O[C@@](C)([C@@H]1OC)n1c3ccccc3c3c4c(c5c6ccccc6n2c5c31)C(=O)NC4 [Staurosporine],–,–,–,–,95.67 and 97.28 and 96.32,9.01 and 9.92 and 8.25,106.36 and 109.16 and 107.34,10.32 and 9.56 and 11.02
CC1=CC(=O)c2c(O)cccc2C1=O [Plumbagin],209.76 and 213.57 and 210.32,35.97 and 38.27 and 33.39,206.36 and 202.92 and 205.16,30.96 and 33.25 and 32.27,–,–,–,–
